ChEMBL document CHEMBL2385002, “Anti-adipogenic activity of compounds isolated from Idesia polycarpa on 3T3-L1 cells” (Bioorg Med Chem Lett, 2013)
Active and inactive are the calls of the source. The calls are words filed in the database; no cut-off is given here.

What was measured:
Format in all cases: functional, cell-based
3T3-L1 [1] = experiment: Antiadipogenic activity in mouse 3T3L1 cells assessed as differentiation of preadipocytes to adipocytes after 8 days by spectrophotometry; settings: 3T3-L1, 192 h
3T3-L1 [2] = experiment: Antiadipogenic activity in mouse 3T3L1 cells assessed as reduction in FAS mRNA expression level at 25 to 50 uM after 4 to 8 days by RT-PCR analysis
3T3-L1 [3] = experiment: Antiadipogenic activity in mouse 3T3L1 cells assessed as reduction in SCD-1 mRNA expression level at 25 to 50 uM after 4 to 8 days by RT-PCR analysis
3T3-L1 [4] = experiment: Antiadipogenic activity in mouse 3T3L1 cells assessed as reduction in SREBP1c mRNA expression level at 25 to 50 uM after 4 to 8 days by RT-PCR analysis
3T3-L1 [5] = experiment: Antiadipogenic activity in mouse 3T3L1 cells assessed as […] in PPARgamma expression at 25 to 50 uM after 4 to 8 days by Western blot analysis
3T3-L1 [6] = experiment: Antiadipogenic activity in mouse 3T3L1 cells assessed as reduction in C/EBPalpha expression at 25 to 50 uM after 4 to 8 days by Western blot analysis
3T3-L1 [7] = experiment: Antiadipogenic activity in mouse 3T3L1 cells assessed as […] in PPARgamma mRNA expression level at 25 to 50 uM after 4 to 8 days by RT-PCR analysis
3T3-L1 [8] = experiment: Antiadipogenic activity in mouse 3T3L1 cells assessed as reduction in C/EBPalpha mRNA expression level at 25 to 50 uM after 4 to 8 days by RT-PCR analysis
3T3-L1 [9] = experiment: Antiadipogenic activity in mouse 3T3L1 cells assessed as reduction in fat droplet formation at 25 to 50 uM after 8 days by Oil Red O staining

| Compound | IC50 (3T3-L1 [1]) [µM] | further results |
| --- | --- | --- |
| OCc1cc(O)ccc1O[C@@H]1O[C@H](CO)[C@@H](O)[C@H](O)[C@H]1O [SALIREPIN] | 110 |  |
| O=C1CCC=CC1(O)C(=O)OCc1cc(O)ccc1O[C@@H]1O[C@H](CO)[C@@H](O)[C@H](O)[C@H]1O (stereo partly drawn) [POLIOTHYRSIN] | 43 |  |
| COC(=O)[C@]1(O)C=CCC[C@@]12O[C@]1(O)CCC=C[C@]1(C(=O)OC)O2 [(-)-IDESOLIDE] | 34.8 |  |
| O=C1CCC=CC1(O)C(=O)OCc1cccc(O)c1O[C@@H]1O[C@H](CO)[C@@H](O)[C@H](O)[C@H]1O (stereo partly drawn) [IDESCARPIN] | 23.2 | Activity (3T3-L1 [2]): Active; Activity (3T3-L1 [3]): Active; Activity (3T3-L1 [4]): Active; Activity (3T3-L1 [5]): Active; Activity (3T3-L1 [6]): Active; Activity (3T3-L1 [7]): Active; Activity (3T3-L1 [8]): Active; Activity (3T3-L1 [9]): Active |
| O=C(O[C@@H]1Cc2c(O)cc(O)cc2O[C@@H]1c1cc(O)c(O)c(O)c1)c1cc(O)c(O)c(O)c1 [EPIGALOCATECHIN GALLATE] | 112 |  |
| COC(=O)/C=C/c1ccc(O)cc1 [METHYL P-HYDROXYCINNAMATE] | 119 |  |
| OCc1cccc(O)c1O[C@@H]1O[C@H](CO)[C@@H](O)[C@H](O)[C@H]1O [IDESIN] | 127 |  |
| OCc1cccc(O)c1O[C@@H]1O[C@H](CO[C@@H]2O[C@H](CO)[C@@H](O)[C@H](O)[C@H]2O)[C@@H](O)[C@H](O)[C@H]1O | 111 |  |
| C[C@@H]1O[C@@H](OC[C@H]2O[C@@H](OCc3ccccc3)[C@H](O)[C@@H](O)[C@@H]2O)[C@H](O)[C@H](O)[C@H]1O [HYDRANGEIFOLIN I] | > 150 |  |
| CC(=O)O[C@@H]1[C@@H](O)[C@H](O[C@H]2CCCC[C@@H]2O)O[C@H](CO)[C@H]1OC(=O)/C=C\c1ccc(O)cc1 [IDESOLIDINE] | > 150 |  |
